Experimental data: ChEMBL document CHEMBL3751734, “Late-stage optimization of a tercyclic class of S1P3-sparing, S1P1 receptor agonists” (Bioorg Med Chem Lett, 2016)
Values after ≈ are worked out from the molar mass of the structure shown.

How the values were obtained:
[1] = biological target: Sphingosine 1-phosphate receptor 3 (Homo sapiens, UniProt Q99500); experiment: Agonist activity at human S1P3 receptor expressed in EDG3-bla U2OS cells incubated for 18 hrs prior to GenBlazer substrate addition by beta-arrestin recruitment assay; assay type: cell-based
[2] = biological target: Sphingosine 1-phosphate receptor 1 (Homo sapiens, UniProt P21453); experiment: Agonist activity at human S1P1 receptor expressed in EDG1-bla U2OS cells incubated for 18 hrs prior to GenBlazer substrate addition by beta-arrestin recruitment assay; assay type: cell-based
[3] = Kinetic solubility of the compound in buffer at pH 7.4 after 16 to 19 hrs by UV absorbance assay; assay type: physicochemical; conditions: read-out: Kinetic_solubility
[4] = Ratio of drug level in brain to plasma (unknown origin); assay type: ADME, cell-free; conditions: read-out: BPR
[5] = biological target: Sphingosine 1-phosphate receptor 5 (Homo sapiens, UniProt Q9H228); experiment: Agonist activity at human S1P5 receptor expressed in EDG8-bla U2OS cells incubated for 18 hrs prior to GenBlazer substrate addition by beta-arrestin recruitment assay; assay type: cell-based
[6] = species: Homo sapiens; experiment: Selectivity ratio of EC50 for human S1P5 receptor to EC50 for human S1P1 receptor
[7] = Equilibrium solubility of the compound in citric acid monohydrate/Na2HPO4 dihydrate buffer at pH 6.8 after 24 hrs by RP-HPLC analysis; assay type: physicochemical
[8] = system: HepG2; experiment: Toxicity in human HepG2 cells assessed as phospholipidosis at 0.1 to 200 uM after 48 hrs by Hoechst […] staining-based lipidTOX assay; assay type: cell-based; conditions: hepg2, 48 h

Sphingosine 1-phosphate receptor 3, sequence (Q99500 whole entry): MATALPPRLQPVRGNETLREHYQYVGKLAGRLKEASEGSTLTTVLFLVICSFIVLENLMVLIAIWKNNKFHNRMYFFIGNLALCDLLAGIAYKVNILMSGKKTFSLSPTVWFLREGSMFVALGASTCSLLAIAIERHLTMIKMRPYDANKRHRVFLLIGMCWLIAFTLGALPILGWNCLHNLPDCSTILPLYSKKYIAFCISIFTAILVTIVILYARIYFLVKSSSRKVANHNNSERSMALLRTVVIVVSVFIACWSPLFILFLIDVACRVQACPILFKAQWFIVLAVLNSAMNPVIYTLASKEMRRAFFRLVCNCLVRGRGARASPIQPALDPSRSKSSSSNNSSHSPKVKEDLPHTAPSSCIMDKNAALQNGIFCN
Sphingosine 1-phosphate receptor 1, sequence (P21453 whole entry): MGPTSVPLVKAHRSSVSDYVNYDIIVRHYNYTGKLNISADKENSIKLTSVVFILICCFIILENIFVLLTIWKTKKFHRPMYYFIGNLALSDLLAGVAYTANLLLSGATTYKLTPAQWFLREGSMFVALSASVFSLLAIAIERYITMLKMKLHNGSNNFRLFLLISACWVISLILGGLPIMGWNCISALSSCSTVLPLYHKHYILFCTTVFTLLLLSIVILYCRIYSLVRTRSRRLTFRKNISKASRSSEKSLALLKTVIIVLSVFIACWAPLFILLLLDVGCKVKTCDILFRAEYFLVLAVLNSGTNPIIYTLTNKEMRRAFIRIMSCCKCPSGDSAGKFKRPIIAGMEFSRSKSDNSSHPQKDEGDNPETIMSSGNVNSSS
Sphingosine 1-phosphate receptor 5, sequence (Q9H228 whole entry): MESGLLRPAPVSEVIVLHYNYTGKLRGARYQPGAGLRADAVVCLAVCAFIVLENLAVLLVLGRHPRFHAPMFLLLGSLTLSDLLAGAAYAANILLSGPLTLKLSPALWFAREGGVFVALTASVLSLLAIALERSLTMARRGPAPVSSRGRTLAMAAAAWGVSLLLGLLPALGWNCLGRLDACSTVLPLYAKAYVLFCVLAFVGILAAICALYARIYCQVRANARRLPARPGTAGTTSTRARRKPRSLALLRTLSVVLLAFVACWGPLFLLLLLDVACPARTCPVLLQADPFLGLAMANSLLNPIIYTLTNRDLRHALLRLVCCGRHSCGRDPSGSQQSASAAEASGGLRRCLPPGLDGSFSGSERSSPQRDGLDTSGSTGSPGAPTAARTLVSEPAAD

Row | SMILES | EC50 [2] [nM] | solubility kinetic [3] [µg/mL] | also measured
1 | CCCCCCCCCCCCC/C=C/[C@@H](O)[C@@H](N)COP(=O)(O)O | 2.8 | – | EC50 [1]: 79 nM
2 | Cc1cc(-c2nc(-c3cc(F)c(O[C@@H]4CNC(=O)C4)cc3Cl)no2)cc(NC(C)C)n1 | 3.5 | 0.1 (≈ 0.224 µM) | –
3 | Cc1cc(-c2nc(-c3cc(F)c(OC[C@H](N)CO)cc3Cl)no2)cc(OC(C)C)n1 | 67 | 0.2 (≈ 0.458 µM) | –
4 | Cc1cc(-c2nnc(-c3cc(F)c(OC[C@H](N)CO)cc3Cl)s2)cc(NC(C)C)n1 | 18 | 9 (≈ 19.9 µM) | –
5 | Cc1cc(-c2nnc(-c3cc(F)c(OC[C@H](N)CO)cc3Cl)s2)cc(OC(C)C)n1 | 130 | < 0.1 | –
6 | Cc1cc(-c2nc(-c3cnc(OC[C@H]4COC(=O)N4)cn3)no2)cc(CC(C)C)n1 | 200 | 27 (≈ 65.8 µM) | –
7 | Cc1nc(-c2nnc(-c3cc(F)c(OC[C@H](N)CO)cc3Cl)s2)ccc1OC(C)C | 105 | < 0.1 | –
8 | CC(C)Cc1ccc(-c2nc(-c3ccc([C@@H](C)N[C@H]4C[C@@H](C(=O)O)C4)cc3)no2)cc1 | 1.9 | – | EC50 [1]: > 10000 nM
9 | CC(C)Oc1ncc(-c2nc(-c3cc(F)c(OC[C@H](N)CO)cc3Cl)no2)cc1Cl | 13 | < 0.1 | –
10 | Cc1cc(-c2nc(-c3cc(C)c(OC[C@H]4COC(=O)N4)cn3)no2)cc(CC(C)C)n1 | 63 | 23 (≈ 54.3 µM) | –
11 | Cc1cc(-c2nnc(-c3cc(F)c(OC[C@H]4CNC(=O)CO4)cc3Cl)s2)cc(NC(C)C)n1 | 550 | 0.8 (≈ 1.63 µM) | –
12 | Cc1cc(-c2nc(-c3cnc(OC[C@H]4COC(=O)N4)cn3)no2)cc(NC(C)C)n1 | 150 | 25 (≈ 60.8 µM) | –
13 | Cc1cc(-c2nnc(-c3cc(F)c(O[C@H]4CCC(=O)NC4)cc3Cl)s2)cc(NC(C)C)n1 | 160 | 0.8 (≈ 1.68 µM) | –
14 | Cc1cc(-c2nnc(-c3cc(F)c(OC[C@H](N)CO)cc3Cl)s2)cc(CC(C)C)n1 | 0.8 | 25 (≈ 55.4 µM) | –
15 | Cc1cc(-c2nc(-c3cnc(OC[C@H]4COC(=O)N4)c(C)n3)no2)cc(NC(C)C)n1 | 2.5 | 2 (≈ 4.7 µM) | –
16 | Cc1cc(-c2nc(-c3ccc(OC[C@H]4COC(=O)N4)cc3)no2)cc(NC(C)C)n1 | 2.8 | 0.1 (≈ 0.244 µM) | –
17 | Cc1cc(-c2nc(-c3ccc(O[C@H]4CCC(=O)NC4)c(C)n3)no2)cc(NC(C)C)n1 | 42 | > 40 | EC50 [1]: > 10000 nM; EC50 [5]: 350 nM; Ratio EC50 [6]: 7; solubility thermodynamic at 24 h [7]: 12 µg/mL (≈ 28.4 µM)
18 | CCOc1ncc(-c2nc(-c3cc(F)c(OC[C@H](N)CO)cc3Cl)no2)cc1Cl | 62 | < 0.1 | –

Row | SMILES | EC50 [2] [nM] | solubility kinetic [3] [µg/mL] | also measured
19 | Cc1cc(-c2nc(-c3cc(C)c(OC[C@H]4COC(=O)N4)cn3)no2)cc(NC(C)C)n1 | 18 | 0.2 (≈ 0.471 µM) | –
20 | Cc1nc(-c2nc(-c3cc(F)c(OC[C@H](N)CO)cc3Cl)no2)ccc1OC(C)C | 49 | 8 (≈ 18.3 µM) | –
21 | CC(C)Oc1ncc(-c2nnc(-c3cc(F)c(OC[C@H](N)CO)cc3Cl)s2)cc1C#N | 13 | < 0.1 | –
22 | CC(C)Oc1ccc(-c2nc(-c3cc(F)c(OC[C@H](N)CO)cc3Cl)no2)cc1Cl | 4.1 | < 0.1 | EC50 [1]: > 10000 nM
23 | Cc1cc(-c2nc(-c3ccc(OC[C@H]4COC(=O)N4)c(C)n3)no2)cc(CC(C)C)n1 | 37 | > 40 | –
24 | Cc1cc(-c2nc(-c3cc(F)c(O[C@H]4CCC(=O)NC4)cc3Cl)no2)cc(NC(C)C)n1 | 0.2 | 0.1 (≈ 0.217 µM) | –
25 | Cc1cc(-c2nc(-c3ccc(OC[C@H]4COC(=O)N4)c(F)c3)no2)cc(NC(C)C)n1 | 0.5 | 0.1 (≈ 0.234 µM) | –
26 | CC(C)Oc1ccc(-c2nc(-c3cc(F)c(OC[C@H](N)CO)cc3Cl)no2)cc1C#N | 0.1 | < 0.1 | –
27 | Cc1cc(-c2nc(-c3cc(F)c(O[C@@H]4CCC(=O)NC4)cc3Cl)no2)cc(NC(C)C)n1 | 0.8 | 0.1 (≈ 0.217 µM) | –
28 | CCCCCCCCc1ccc(CCC(N)(CO)CO)cc1 [FINGOLIMOD] | – | – | EC50 [1]: > 10000 nM
29 | Cc1cc(-c2nnc(-c3cc(F)c(O[C@@H]4CCC(=O)NC4)cc3Cl)s2)cc(NC(C)C)n1 | 300 | 1 (≈ 2.1 µM) | –
30 | CC(C)Oc1ccc(-c2nnc(-c3cc(F)c(OC[C@H](N)CO)cc3Cl)s2)cc1Cl | 32 | < 0.1 | EC50 [1]: > 10000 nM
31 | Cc1cc(-c2nc(-c3ccc(OC[C@H]4COC(=O)N4)nc3)no2)cc(NC(C)C)n1 | 7.3 | 0.3 (≈ 0.731 µM) | –
32 | CC(C)Oc1ncc(-c2nnc(-c3cc(F)c(OC[C@H](N)CO)cc3Cl)s2)cc1Cl | 100 | < 0.1 | –
33 | Cc1cc(-c2nnc(-c3cc(F)c(OC[C@H]4OCC[C@@H]4O)cc3Cl)s2)cc(NC(C)C)n1 | 250 | 0.9 (≈ 1.88 µM) | –
34 | CC(=O)N1CCOC[C@@H]1COc1cc(Cl)c(-c2noc(-c3cc(C)nc(NC(C)C)c3)n2)cc1F | 4.1 | 0.1 (≈ 0.198 µM) | –
35 | Cc1cc(-c2nc(-c3cc(F)c(O[C@H]4COC[C@H]4O)cc3Cl)no2)cc(NC(C)C)n1 (racemic) | 0.8 | 0.1 (≈ 0.223 µM) | –
36 | Cc1cc(-c2nc(-c3cc(F)c(OC[C@H](N)CO)cc3Cl)no2)cc(CC(C)C)n1 | 20 | – | –

Second part, led by results:

Row | EC50 [2] [nM] | solubility kinetic [3] [µg/mL] | SMILES | also measured
37 | 310 | 1 (≈ 1.92 µM) | CC(=O)N1CCOC[C@@H]1COc1cc(Cl)c(-c2nnc(-c3cc(C)nc(NC(C)C)c3)s2)cc1F | –
38 | 147 | 0.2 (≈ 0.43 µM) | Cc1cc(-c2nnc(-c3cc(F)c(O[C@H]4COC[C@H]4O)cc3Cl)s2)cc(NC(C)C)n1 (racemic) | –
39 | 50 | > 40 | Cc1nc(CC(C)C)cc(-c2nc(-c3ccc(O[C@@H]4CCC(=O)NC4)c(F)c3)no2)n1 | Kp [4]: 0.1; EC50 [1]: > 10000 nM; EC50 [5]: 360 nM; Ratio EC50 [6]: 7; solubility thermodynamic at 24 h [7]: 27 µg/mL (≈ 63.5 µM)
40 | 0.5 | < 0.1 | CC(C)Oc1ncc(-c2nc(-c3cc(F)c(OC[C@H](N)CO)cc3Cl)no2)cc1C#N | –
41 | 86 | 0.3 (≈ 0.628 µM) | Cc1cc(-c2nnc(-c3cc(F)c(OC[C@H]4COC(=O)N4)cc3Cl)s2)cc(NC(C)C)n1 | –
42 | 0.6 | 0.1 (≈ 0.217 µM) | Cc1cc(-c2nc(-c3cc(F)c(OC[C@H]4COC(=O)N4)cc3Cl)no2)cc(NC(C)C)n1 | Activity [8]: Non-toxic
43 | 0.8 | 0.1 (≈ 0.217 µM) | Cc1cc(-c2nc(-c3cc(F)c(OC[C@H]4CCC(=O)N4)cc3Cl)no2)cc(NC(C)C)n1 | –
44 | 4 | 0.3 (≈ 0.688 µM) | Cc1cc(-c2nc(-c3cc(F)c(OC[C@H](N)CO)cc3Cl)no2)cc(NC(C)C)n1 | –
45 | 1.4 | 0.9 (≈ 2.13 µM) | Cc1cc(-c2nc(-c3cnc(OC[C@H]4COC(=O)N4)c(C)c3)no2)cc(CC(C)C)n1 | –
46 | 6 | 0.1 (≈ 0.216 µM) | Cc1cc(-c2nc(-c3cc(F)c(OC[C@H]4OCC[C@@H]4O)cc3Cl)no2)cc(NC(C)C)n1 | –
47 | 594 | < 0.1 | CCOc1ncc(-c2nnc(-c3cc(F)c(OC[C@H](N)CO)cc3Cl)s2)cc1Cl | –
48 | 7.9 | 17 (≈ 40.1 µM) | Cc1cc(-c2nc(-c3ccc(OC[C@H]4COC(=O)N4)c(C)n3)no2)cc(NC(C)C)n1 | –
49 | 120 | 0.9 (≈ 2.19 µM) | Cc1cc(-c2nc(-c3ccc(OC[C@H]4COC(=O)N4)cn3)no2)cc(NC(C)C)n1 | –
50 | 560 | 0.6 (≈ 1.3 µM) | Cc1cc(-c2nnc(-c3cc(F)c(O[C@@H]4CNC(=O)C4)cc3Cl)s2)cc(NC(C)C)n1 | –
51 | 32 | 26 (≈ 54.9 µM) | Cc1nc(CC(C)C)cc(-c2nc(-c3cc(F)c(O[C@@H]4CCC(=O)N(C)C4)cc3Cl)no2)n1 | Kp [4]: 0.1; EC50 [1]: > 10000 nM; EC50 [5]: 215 nM; Ratio EC50 [6]: 7; solubility thermodynamic at 24 h [7]: 10 µg/mL (≈ 21.1 µM)
52 | 14 | 0.1 (≈ 0.21 µM) | Cc1cc(-c2nc(-c3cc(F)c(OC[C@H]4CNC(=O)CO4)cc3Cl)no2)cc(NC(C)C)n1 | –
53 | 330 | 0.9 (≈ 1.89 µM) | Cc1cc(-c2nnc(-c3cc(F)c(OC[C@H]4CCC(=O)N4)cc3Cl)s2)cc(NC(C)C)n1 | –
54 | 11 | > 40 | Cc1cc(-c2nc(-c3cc(C)c(OC[C@@H]4CCC(=O)N4)c(C)n3)no2)cc(CC(C)C)n1 | EC50 [1]: > 10000 nM; EC50 [5]: 340 nM; Ratio EC50 [6]: 7; solubility thermodynamic at 24 h [7]: 21 µg/mL (≈ 48.2 µM)
